Measurements published in US20080045512A1, “Benzoate salt of 4-(5-methyl-oxazolo[4,5-b]-pyridin-2-yl)-1,4-diazabicyclo[3.2.2]nonane” (Pfizer Inc., priority 2006, published 2008).
Counter-ions that a name gives are not always drawn. Blank lines part the entries; values can stand above or below the compound they belong to.

Assays:
[1] = cited from earlier work
[2] = cited from earlier work; remark: listed apart in the source
[3] = Hygroscopicity by dynamic vapor sorption (isothermal moisture sorption analysis); type: physicochemical; details: for hygroscopicity (result in words): dynamic vapor sorption, 25° C.
Experimental: Hygroscopicity was assessed using a dynamic vapor sorption technique in which an accurately weighed sample is subjected to progressively changing water vapor pressure while simultaneously recording the weight change. The experiment is conducted isothermally at 25° C.
For 4-(5-methyloxazolo[4,5-b]pyridin-2-yl)-1,4-diazabicyclo[3.2.2]nonane benzoate Form A, less than 0.1% increase in weight was detected at 90±2% relative humidity during an isothermal (24.9±0.1° C.) moisture sorption analysis conducted from approximately 1% to 90% (±2%) humidity. Considering standard deviation, it is considered that increase in weight is less than 0.2%.

[4] = Comparison of salts of Formula I: physical properties tested and observed; type: physicochemical
Experimental: Physical properties of various salts of Formula I were tested and observed.

Compound: O=C1Cc2cc(CCN3CCN(c4nsc5ccccc45)CC3)c(Cl)cc2N1 [Ziprasidone, 5-[2-[4-(1,2-benzisothiazol-3-yl)piperazin-1-yl]ethyl]-6-chloroindolin-2-one]
half-life ([1]; in vivo): 6 to 7 h
Oral bioavailability ([1]; taken with food): approximately 60%
protein binding [2]: extensive

Compound: Cc1ccc2oc(N3CCN4CCC3CC4)nc2n1 [benzoate salt of Formula I, 4-(5-methyloxazolo[4,5-b]pyridin-2-yl)-1,4-diazabicyclo[3.2.2]nonane benzoate]
increase in weight in moisture sorption analysis ([3]; at 90±2% relative humidity, isothermal 24.9±0.1° C., from approximately 1% to 90% (±2%) humidity): less than 0.1%
hygroscopicity (result in words) [3]: relatively non-hygroscopic
hygroscopicity (result in words) ([3]; listed as 4-(5-methyloxazolo[4,5-b]pyridin-2-yl)-1,4-diazabicyclo[3.2.2]nonane benzoate Fo): non-hygroscopic

hygroscopicity (result in words) [4]: undesirable hygroscopicity
Compound: L-lactate

hygroscopicity (result in words) [4]: undesirable hygroscopicity
Compound: fumarate
